Converted amounts (≈) assume the structure as drawn. Like-named read-outs stand apart in the source and are kept apart here.
Legend:
MRSA USA100 = test: MIC against MRSA USA100; assay type: cell-based, Staphylococcus aureus; details: Staphylococcus aureus, read-out: MIC, Staphylococcus aureus isolate USA100
Procedure: (§1) 96-well plates were seeded with 5 × 10^5 CFU/mL in a volume of 100 μL of tryptic soy broth (TSB) per well for Staphylococcus aureus assays. Compounds were dissolved in DMSO and serially diluted as 1:2 dilutions to give the final concentration ranging from 0.25 to 128 μg/mL per well. […] Plates were incubated at 37 °C for 18–20 hours and MIC was determined by reading OD625. For M.avium and M.abscessus, 7H9 broth media was used for determination of MICs. The final concentration was 5 × 10^5 CFU/mL in each well. The plate was incubated at 37 °C for 7–8 days and MICs were determined using a Tecan microplate reader (OD625) and resazurin reduction assay.

MRSA USA200 = test: MIC against MRSA USA200; assay type: cell-based, Staphylococcus aureus; details: for MIC: Staphylococcus aureus, read-out: MIC, Staphylococcus aureus isolate USA200
Procedure: as §1

MRSA USA300 = test: MIC against MRSA USA300; assay type: cell-based, Staphylococcus aureus; details: Staphylococcus aureus; TSB, 37 °C, 18–20 hours; read-out: MIC, Staphylococcus aureus isolate USA300
Procedure: as §1

MRSA USA400 = test: MIC against MRSA USA400; assay type: cell-based, Staphylococcus aureus; details: TSB, 37 °C, 18–20 hours; for MIC: Staphylococcus aureus, read-out: MIC, Staphylococcus aureus isolate USA400
Procedure: as §1

MRSA USA500 = test: MIC against MRSA USA500; assay type: cell-based, Staphylococcus aureus; details: TSB, 37 °C, 18–20 hours; for MIC: Staphylococcus aureus, read-out: MIC, Staphylococcus aureus isolate USA500
Procedure: as §1

MRSA USA700 = test: MIC against MRSA USA700; assay type: cell-based, Staphylococcus aureus; details: for MIC: Staphylococcus aureus, read-out: MIC, Staphylococcus aureus isolate USA700
Procedure: as §1

MRSA USA800 = test: MIC against MRSA USA800; assay type: cell-based, Staphylococcus aureus; details: Staphylococcus aureus; TSB, 37 °C, 18–20 hours; read-out: MIC, Staphylococcus aureus isolate USA800
Procedure: as §1

[1] = tested on: Methicillin susceptible Staphylococcus aureus; test: MIC against MSSA; assay type: cell-based; details: for MIC: MSSA
Procedure: as §1

Enterococcus faecalis = test: MIC against Enterococcus faecalis; assay type: cell-based; details: read-out: MIC, EF
Pseudomonas aeruginosa = test: MIC against Pseudomonas aeruginosa; assay type: cell-based; details: read-out: MIC, PA
Mycobacterium avium = test: MIC against Mycobacterium avium; assay type: cell-based; details: 7H9 broth, 7–8 days
Procedure: as §1

Mycobacterium abscessus = test: MIC against Mycobacterium abscessus; assay type: cell-based; details: Mycobacteroides abscessus, 7H9 broth, 7–8 days
Procedure: as §1

Gram-positive bacteria = test: MIC against Gram-positive bacteria (summary); assay type: cell-based; details: range over all tested Gram-positive bacteria
Procedure: as §1

Row | SMILES | MIC (MRSA USA100; TSB, 37 °C, 18–20 hours) [µg/mL] | MIC (MRSA USA300) [µg/mL] | MIC (MRSA USA400) [µg/mL] | MIC (MRSA USA700; TSB, 37 °C, 18–20 hours) [µg/mL] | MIC [1] [µg/mL] | MIC (Enterococcus faecalis) [µg/mL] | MIC (Pseudomonas aeruginosa) [µg/mL] | MIC (MRSA USA700) [µg/mL] | further results
1 | COc1ccc2ccc(OCCCCCCCCNCCc3ccc(Cl)cc3)cc2c1 [3b] | 6 (≈ 13.6 µM) | 6 (≈ 13.6 µM) | 4 (≈ 9.09 µM) | 8 (≈ 18.2 µM) | 4 (≈ 9.09 µM) | 0.5 (≈ 1.14 µM) | > 64 | – | MIC (MRSA USA200; TSB, 37 °C, 18–20 hours): 2 µg/mL (≈ 4.55 µM); MIC (MRSA USA500): 8 µg/mL (≈ 18.2 µM); MIC (MRSA USA800): 6 µg/mL (≈ 13.6 µM); MIC (Mycobacterium avium): 4 µg/mL (≈ 9.09 µM); MIC (Mycobacterium abscessus): 12 µg/mL (≈ 27.3 µM); MIC values against all Gram-positive bacteria (range) (Gram-positive bacteria): 0.5 to 16 µg/mL
2 | COc1ccc2ccc(OCCCCCCCCN3CCc4ccccc4C3)cc2c1 [3d] | – | – | – | – | – | – | – | – | MIC, Staphylococcus aureus isolate USA200 (MRSA USA200; TSB, 37 °C, 18–20 hours): >128 µg/mL; MIC, Staphylococcus aureus isolate USA400 (MRSA USA400): 64 µg/mL (≈ 153 µM); MIC, Staphylococcus aureus isolate USA500 (MRSA USA500): 128 µg/mL (≈ 307 µM); MIC, Staphylococcus aureus isolate USA700 (MRSA USA700; TSB, 37 °C, 18–20 hours): 32 µg/mL (≈ 76.6 µM); MIC, MSSA [1]: 32 µg/mL (≈ 76.6 µM)
3 | COc1ccc2ccc(OCCCCCCCCN3CCN(c4ccc(F)cc4)CC3)cc2c1 [3e] | – | – | – | – | – | > 128 | – | > 128 | –
4 | COc1ccc2ccc(OCCCCCCCCn3c4ccccc4c4ccccc43)cc2c1 [3f] | – | – | – | – | – | – | – | > 128 | MIC (MRSA USA100): > 128 µg/mL
5 | COc1ccc2ccc(OCCCCCCCCN3C(=O)OC[C@@H]3Cc3ccccc3)cc2c1 [3g] | – | – | > 128 | > 128 | > 128 | – | > 128 | – | –
6 | COc1ccc2ccc(OCCCCCCCCN[C@@H]3CCOC3=O)cc2c1 [3h] | – | – | > 128 | > 128 | > 128 | – | > 128 | – | –
7 | COc1ccc2ccc(OCCCCCCCCN3CCC(F)CC3)cc2c1 [3i] | – | – | – | – | – | – | – | > 128 | –
8 | C=CCN(C)CCCOC/C=C/COc1ccc2ccc(OC)cc2c1 [4a] | – | – | – | – | – | – | – | 128 (≈ 360 µM) | MIC (MRSA USA200): 128 µg/mL (≈ 360 µM)
9 | COc1ccc2ccc(OC/C=C/COCCCN3CCCCC3)cc2c1 [4b] | – | – | – | – | – | – | > 128 | 128 (≈ 346 µM) | –
10 | COc1ccc2ccc(OC/C=C/COCCCNCCc3ccc(F)cc3)cc2c1 [4c] | 8 (≈ 18.9 µM) | 8 (≈ 18.9 µM) | 8 (≈ 18.9 µM) | 16 (≈ 37.8 µM) | 16 (≈ 37.8 µM) | – | > 64 | – | MIC (MRSA USA500): 16 µg/mL (≈ 37.8 µM); MIC (MRSA USA800): 16 µg/mL (≈ 37.8 µM); MIC (Mycobacterium avium): 8 µg/mL (≈ 18.9 µM)
11 | Fc1ccc(CCNCCCCCCCCOc2ccc3cc(Br)ccc3c2)cc1 [5a] | 16 (≈ 33.9 µM) | 4 (≈ 8.47 µM) | 8 (≈ 16.9 µM) | 4 (≈ 8.47 µM) | – | 2 (≈ 4.23 µM) | – | – | MIC (MRSA USA200; TSB, 37 °C, 18–20 hours): 4 µg/mL (≈ 8.47 µM)
12 | Clc1ccc(CCNCCCCCCCCOc2ccc3cc(Br)ccc3c2)cc1 [5b] | > 128 | 32 (≈ 65.5 µM) | 64 (≈ 131 µM) | 64 (≈ 131 µM) | – | 16 (≈ 32.7 µM) | – | – | MIC (MRSA USA200; TSB, 37 °C, 18–20 hours): 16 µg/mL (≈ 32.7 µM)

— PMC5223195, “Novel long-chain compounds with both immunomodulatory and MenA inhibitory activities against Staphylococcus aureus and its biofilm” (Scientific Reports, 2017)
